Data set [1] has as its system human erythrocyte membranes. Nature of the data set: Inhibition of lipoperoxidation in erythrocyte membranes. In kind it is biochemical.
In data set [2] the test system is AGS cells. Nature of the data set: Cellular reduced glutathione (GSH) content of AGS cells. Type of data set: cell-based, human. As to conditions: 4 h; for GSH: post-confluent AGS, control 13.6 ± 0.7. The method, then:
Untreated cells were used as controls. […] After incubation, the GSH content was determined using a colorimetric kit (BioAssays Systems, Hayward, CA, USA). Results are expressed as nanomol of soluble reduced sulfhydryls/10^6 cells.

Data set [3] concerns AGS cells. The data set is described as follows: Sodium taurocholate (NaT)-induced damage to AGS cells. In kind it is cell-based, human. As to conditions: 60 min pre-treatment, then 10 mM NaT 30 min. The method, then:
The effect of sodium taurocholate (NaT) on cell viability was determined according to [15]. […] Then, 10 mM NaT was added to all wells for 30 min. Untreated cells were used as controls. […] After incubation, the NRU assay was carried out.

Data set [4] in a line: Cytotoxicity, neutral red uptake assay, AGS. Type of data set: cell-based. Conditions: human, AGS gastric epithelial cells, confluent monolayer, read-out: IC50 ± SD, cytotoxicity AGS. The method, then:
(§1) Human lung fibroblasts MRC-5 (ATCC CCL-171) were grown in minimum essential Eagle medium (MEM) with Earles’s salts and 2 mM L-glutamine (Sigma-Aldrich Co.). Human epithelial gastric cells AGS (ATCC CRL-1739) were grown in Ham F-12 medium containing 1 mM L-glutamine. Both media were supplemented with 1.5 g/L sodium bicarbonate (Sigma-Aldrich Co.), 10% heat-inactivated fetal bovine serum (FBS), 100 IU/mL penicillin and 100 µg/mL streptomycin.Both cell lines were grown as monolayers in a humidified incubator with 5% CO2 in air at 37 °C. Culture media, antibiotics and FBS were obtained from Invitrogen Corp.
(§2) Cytotoxicity values were required as a reference to determine the working concentrations in the subsequent experiments. Briefly, confluent cultures of MRC-5 and AGS cells were treated during 24 h with medium containing the compounds at concentrations ranging from 0 up to 1,000 µM. The products were first dissolved in DMSO (1% final concentration) and then in the corresponding culture medium supplemented with 2% FBS. Untreated cells were used as controls. Cell viability was determined at the end of the incubation by means of the neutral red uptake (NRU) assay. Lansoprazole (Sigma-Aldrich Co., min. 98% by TLC) was used as reference compound.

A short description of data set [5]: Cytotoxicity, neutral red uptake assay, MRC-5. In kind it is cell-based. Conditions: human, MRC-5 lung fibroblasts, confluent monolayer, confluent MRC-5, 24 h, read-out: IC50 ± SD, cytotoxicity MRC-5. The method, then:
as §1, §2

In data set [6] the test system is human erythrocyte membranes. Nature of the data set: Inhibition of lipoperoxidation in erythrocyte membranes. Type of data set: biochemical. As to conditions: at 100 µg/mL. The method, then:
The inhibition of lipid peroxidation was determined using human erythrocyte membranes. The compounds were tested at 100 µg/mL.

The test system of data set [7] is AGS cells. Nature of the data set: Prostaglandin E2 (PGE2) content of AGS cells. In kind it is cell-based, human. As to conditions: 1 h; for PGE2: post-confluent AGS, control 52 ± 5. The method, then: One day after confluence, AGS cells were treated for 1 h with the compounds at 1/2 and 1/4 of the respective IC50 values. A control with medium only was included. Indomethacin (100 μM) was used as standard inhibitor of prostaglandin synthesis (Sigma-Aldrich Co., min. 99% by TLC). After incubation, PGE2 content was determined by means of a specific enzyme immunoassay kit (R & D Systems KGE004B, Minneapolis, MN, USA) and values were calculated according to the manufacturer instructions. Results are expressed as pg/well.

Regarding `O.Oc1cc(O)c2c(c1)O[C@H](c1ccc(O)c(O)c1)[C@@H](O)C2` [Catechin, reference compound], the “IC50, inhibition of the lipoperoxidation” value in data set [1] is recorded as “IC50 75.4 ± 6.0 µg/mL”.
With `CC(C)CCC1=C(O)C(=O)c2ccccc2C1=O` [Compound 2, Dihydroprenyl lapachol], the GSH worked out at 13.6 ± 0.7 nmol/10^6 cells with AGS cells [2] (37 µM) and 13.8 ± 0.7 nmol/10^6 cells in the data set with AGS cells [2] (73 µM). Further, in data set [1], the “IC50, inhibition of the lipoperoxidation” value is “IC50 25.4 ± 2.4 µg/mL”. Further, the “reduction in cell viability, NaT-induced damage” value (shortened to “reduction in cell viability”) worked out at 23% in the data set on AGS cells [3] (37 µM), 23% in the data set with AGS cells [3] (73 µM) and 27% in the data set with AGS cells [3] (146 µM). Further, the IC50 at 24 h amounted to 292 ± 12 µM in data set [4] and 611 ± 42 µM in data set [5].
For `CC(C)CCC1=C(O)C(=O)C2=C(CCCC2)C1=O` [Compound 3, Dihydroprenyl-5,6,7,8-tetrahydrolapachol], the GSH with AGS cells [2] (11 µM) stood at 14.3 ± 0.7 nmol/10^6 cells; with AGS cells [2] (22 µM), 13.0 ± 0.5 nmol/10^6 cells. Further, the “IC50, inhibition of the lipoperoxidation” value in data set [1] is reported as “IC50 33.3 ± 2.3 µg/mL”. Further, the IC50 at 24 h was determined as 87 ± 4 µM in data set [4] and 307 ± 22 µM in data set [5].
For the compound `C=C1CCC2[C@](C)(CCC[C@]2(C)C(=O)O)[C@H]1CC[C@@H](C)CC(=O)O` (stereo partly shown) [Compound 4, Junicedric acid], the GSH entry in the data set on AGS cells [2] (48 µM) is listed as “* 18.4 ± 1.1 nmol/10^6 cells”; in the data set on AGS cells [2] (96 µM) it was “* 17.2 ± 1.0 nmol/10^6 cells”. Also, the “% Inhibition of the lipoperoxidation” value in data set [6] came to 25%. For the same compound, the IC50 at 24 h in data set [4] worked out at 383 ± 23 µM; in data set [5], 439 ± 26 µM.
`CC(CCC1C(C)CCC2C(C)(C(=O)O)CCCC12C)CC(=O)O` (stereo not drawn) [Compound 6, 17β-Dihydrojunicedric acid]: the activation at 37 µM in the data set on AGS cells [2] (Homo sapiens, AGS, 37 µM, read-out: increase of GSH content compared to untreated controls) was determined as 43%. Also, the activation at 71 µM in the data set with AGS cells [2] (Homo sapiens, AGS, 71 µM, read-out: increase of GSH content compared to untreated controls) was 60%. Moreover, the figures for the GSH result in the data set on AGS cells [2] (37 µM) and with AGS cells [2] (71 µM) were “* 19.5 ± 0.9 nmol/10^6 cells” and “** 21.7 ± 1.3 nmol/10^6 cells”, respectively. Also, in data set [6], the “% Inhibition of the lipoperoxidation” value was found to be 30%. Also, the IC50 at 24 h in data set [4] worked out at 283 ± 17 µM; in data set [5], 163 ± 5 µM.
For the compound `C=C1CCC2[C@](C)(CCC[C@]2(C)C(=O)O)[C@H]1CC[C@@H](C)CC(=O)OC1=C(CC=C(C)C)C(=O)c2ccccc2C1=O` (stereo partly shown) [Compound 7, Lapachoyl junicedrate], the activation at 18 µM with AGS cells [2] (Homo sapiens, AGS, 18 µM, read-out: increase of GSH content compared to untreated controls) was determined as 18%. Besides, in the data set with AGS cells [2] (Homo sapiens, AGS, 36 µM, read-out: increase of GSH content compared to untreated controls), the activation at 36 µM worked out at 23%. The GSH in the data set on AGS cells [2] (18 µM) is 16.1 ± 0.9 nmol/10^6 cells; with AGS cells [2] (36 µM) it was “* 16.7 ± 0.7 nmol/10^6 cells”. In addition, the “% Inhibition of the lipoperoxidation” value in data set [6] is 10%. The IC50 at 24 h in data set [4] was found to be 143 ± 6 µM; in data set [5] it was 221 ± 13 µM.
Consider `C=C1CCC2[C@](C)(CCC[C@]2(C)C(=O)OC)[C@H]1CC[C@@H](C)CC(=O)OC1=C(CCC(C)C)C(=O)C2=C(CCCC2)C1=O` (stereo partly shown) [Compound 12, Dihydroprenyl-5,6,7,8-tetrahydrolapachoyl junicedrate methyl ester], for which the GSH came to 13.7 ± 1.0 nmol/10^6 cells with AGS cells [2] (125 µM) and 13.9 ± 0.8 nmol/10^6 cells in the data set with AGS cells [2] (250 µM). Further, the “% Inhibition of the lipoperoxidation” value in data set [6] is recorded as 37%. For the same compound, the figures for the IC50 at 24 h in data set [4] and in data set [5] were greater than 1000 µM and 667 ± 40 µM, respectively.
As to `COC(=O)[C@@]1(C)CCC[C@@]2(C)C1CC[C@H](C)[C@@H]2CC[C@@H](C)CC(=O)OC1=C(CC=C(C)C)C(=O)c2ccccc2C1=O` (stereo partly drawn) [Compound 14, Lapachoyl 17β-dihydrojunicedrate methyl ester], the GSH was found to be 14.4 ± 0.5 nmol/10^6 cells in the data set with AGS cells [2] (115 µM) and 12.7 ± 0.4 nmol/10^6 cells in the data set with AGS cells [2] (229 µM). Moreover, the “IC50, inhibition of the lipoperoxidation” value in data set [1] is “IC50 19.7 ± 1.4 µg/mL”. Also, the IC50 at 24 h in data set [4] was found to be 916 ± 54 µM; in data set [5], 727 ± 48 µM.
On to `CC(C)CCC1=C(OC(=O)C[C@H](C)CC[C@H]2[C@@H](C)CCC3[C@]2(C)CCC[C@]3(C)C(=O)O)C(=O)c2ccccc2C1=O` (stereo partly drawn) [Compound 15, Dihydroprenyl lapachol 17β-dihydrojunicedrate], for which the activation at 125 µM in the data set with AGS cells [2] (Homo sapiens, AGS, 125 µM, read-out: increase of GSH content compared to untreated controls) came to 31%. Also, the activation at 250 µM in the data set with AGS cells [2] (Homo sapiens, AGS, 250 µM, read-out: increase of GSH content compared to untreated controls) came out at 35%. In addition, the GSH entry with AGS cells [2] (125 µM) was “* 17.8 ± 0.9 nmol/10^6 cells”; with AGS cells [2] (250 µM) it was “* 18.4 ± 1.2 nmol/10^6 cells”. Further, in the data set with AGS cells [7] (Homo sapiens, AGS, 250 µM, read-out: increase in PGE2 content), the fold induction at 250 µM turned out to be 5.4. Moreover, in the data set on AGS cells [7] (Homo sapiens, AGS, 500 µM, read-out: increase in PGE2 content), the fold induction at 500 µM was 7.2. The PGE2 in the data set on AGS cells [7] (250 µM) was 279 ± 20 pg/mL; in the data set with AGS cells [7] (500 µM) it was 372 ± 25 pg/mL. Besides, the “IC50, inhibition of the lipoperoxidation” value in data set [1] was “IC50 25.3 ± 4.1 µg/mL”. Moreover, the “reduction in cell viability” value in the data set with AGS cells [3] (125 µM) turned out to be 27%; with AGS cells [3] (250 µM), 27%; with AGS cells [3] (500 µM), 21%. Moreover, the IC50 at 24 h in data set [4] and in data set [5] was greater than 1000 µM in each case.
For `CC(C)=CCC1=C(OC(=O)C[C@H](C)CC[C@H]2[C@@H](C)CCC3[C@]2(C)CCC[C@]3(C)C(=O)O)C(=O)C2=C(CCCC2)C1=O` (stereo partly drawn) [Compound 17, Dihydroprenyl-5,6,7,8-tetrahydrolapachoyl 17β-dihydrojunicedrate], the activation at 7.5 µM in the data set with AGS cells [2] (Homo sapiens, AGS, 7.5 µM, read-out: increase of GSH content compared to untreated controls) was determined as 89%. In addition, the activation at 15 µM in the data set with AGS cells [2] (Homo sapiens, AGS, 15 µM, read-out: increase of GSH content compared to untreated controls) was found to be 51%. Also, the GSH result is on record as “** 25.8 ± 1.6 nmol/10^6 cells” in the data set with AGS cells [2] (7.5 µM) and “** 20.5 ± 1.0 nmol/10^6 cells” with AGS cells [2] (15 µM). Besides, in data set [6], the “% Inhibition of the lipoperoxidation” value is reported as 48%. For the same compound, the IC50 at 24 h amounted to 60 ± 5 µM in data set [4] and 44 ± 4 µM in data set [5].
Turning to `COc1ccc2c(c1)c(CC(=O)O)c(C)n2C(=O)c1ccc(Cl)cc1` [Indomethacin, reference compound], the PGE2 entry with AGS cells [7] (100 µM) is reported as “Not detected”.
For `Cc1c(OCC(F)(F)F)ccnc1C[S+]([O-])c1nc2ccccc2[nH]1` (stereo not shown) [Lansoprazole, reference compound], the figures for the IC50 at 24 h in data set [4] and in data set [5] were 168 ± 8 µM and 316 ± 11 µM, respectively.
In the case of `CC(=O)N[C@@H](CS)C(=O)O` [NAC, N-acetyl-L-cysteine, reference compound], the activation at 750 µM in the data set on AGS cells [2] (Homo sapiens, AGS, 750 µM, read-out: increase of GSH content compared to untreated controls) amounted to 30%. Besides, in the data set with AGS cells [2] (750 µM), the GSH result is listed as “* 17.7 ± 1.4 nmol/10^6 cells”.
With Sucralfate [reference compound], the “reduction in cell viability” value in the data set on AGS cells [3] (4 mg/mL (580 µM)) was 35%.

By IC50 is commonly meant the concentration at which inhibition is half-maximal.

The values are drawn from article PMC6270338, “Diterpenylquinone Hybrids: Synthesis and Assessment of Gastroprotective Mechanisms of Action in Human Cells” (Molecules, 2013).
